This note sets out measurements from patent US10428080B2, “TBK/IKK inhibitor compounds and uses thereof” (Merck Patent GmbH, priority 2015, dated 2019).

The target in one test is T1, TBK1 (Homo sapiens, UniProt Q9UHD2).
T1 sequence (Q9UHD2 1-729): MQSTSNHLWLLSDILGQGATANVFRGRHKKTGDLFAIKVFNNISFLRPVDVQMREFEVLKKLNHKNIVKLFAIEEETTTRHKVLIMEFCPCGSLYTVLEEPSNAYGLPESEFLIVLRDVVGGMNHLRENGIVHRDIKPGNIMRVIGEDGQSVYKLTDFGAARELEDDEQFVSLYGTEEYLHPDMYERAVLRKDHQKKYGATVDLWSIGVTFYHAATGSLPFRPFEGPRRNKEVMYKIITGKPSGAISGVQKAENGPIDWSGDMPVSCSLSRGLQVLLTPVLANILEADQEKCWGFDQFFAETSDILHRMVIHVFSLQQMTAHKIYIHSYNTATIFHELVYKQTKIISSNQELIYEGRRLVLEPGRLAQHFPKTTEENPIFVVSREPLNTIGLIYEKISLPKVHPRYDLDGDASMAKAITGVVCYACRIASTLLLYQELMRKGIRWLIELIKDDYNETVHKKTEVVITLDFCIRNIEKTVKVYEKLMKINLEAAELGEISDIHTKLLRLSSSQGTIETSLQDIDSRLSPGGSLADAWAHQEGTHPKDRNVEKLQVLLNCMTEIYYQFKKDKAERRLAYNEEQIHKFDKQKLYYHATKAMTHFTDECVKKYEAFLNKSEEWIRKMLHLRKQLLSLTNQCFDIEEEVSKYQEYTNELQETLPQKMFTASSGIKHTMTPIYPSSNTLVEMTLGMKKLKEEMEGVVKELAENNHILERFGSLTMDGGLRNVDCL
In words: TBK Biochemical Assay. To be noted: read-out: TBK1 IC50. Summed up:
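TBK1 enzyme and substrate incubated with compounds (10-point 1:4 dilution, top 30 uM final, 1% DMSO) for 90 min at 25° C, then stopped. Substrate/product peaks read by microfluidic mobility-shift (Caliper LabChip); 10 uM staurosporine as full-inhibition control.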

The target of a further test is T2, IKKε (Homo sapiens, UniProt Q14164).
T2 sequence (Q14164 1-716): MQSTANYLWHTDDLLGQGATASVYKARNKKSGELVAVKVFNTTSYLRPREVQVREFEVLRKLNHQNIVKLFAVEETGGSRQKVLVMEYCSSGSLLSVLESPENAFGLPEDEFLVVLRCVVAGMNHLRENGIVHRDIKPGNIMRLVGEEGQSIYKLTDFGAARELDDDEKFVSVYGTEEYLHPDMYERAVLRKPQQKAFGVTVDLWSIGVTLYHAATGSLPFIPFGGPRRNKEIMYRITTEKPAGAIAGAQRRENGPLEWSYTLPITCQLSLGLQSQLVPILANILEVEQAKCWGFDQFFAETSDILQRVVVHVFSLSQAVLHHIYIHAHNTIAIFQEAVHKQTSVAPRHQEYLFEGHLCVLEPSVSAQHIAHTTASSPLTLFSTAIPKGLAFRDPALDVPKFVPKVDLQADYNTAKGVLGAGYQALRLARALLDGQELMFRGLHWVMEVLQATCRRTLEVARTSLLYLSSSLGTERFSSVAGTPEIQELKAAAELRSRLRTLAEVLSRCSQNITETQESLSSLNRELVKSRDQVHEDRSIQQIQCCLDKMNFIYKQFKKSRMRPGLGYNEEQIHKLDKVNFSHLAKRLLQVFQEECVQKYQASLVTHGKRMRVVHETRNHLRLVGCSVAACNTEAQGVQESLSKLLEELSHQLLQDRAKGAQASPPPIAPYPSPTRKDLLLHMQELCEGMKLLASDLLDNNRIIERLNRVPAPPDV
In words: IKKe Biochemical Assay. To be noted: read-out: IKKε IC50. The method, boiled down: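 Recombinant IKKε and substrate were incubated with compound (10-point 1:4 series, top 30 uM final, 1% DMSO) for 90 min at 25° C, then stopped. Substrate-to-product conversion was read by LabChip microfluidic mobility shift; 10 uM staurosporine served as full-inhibition wells.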

In general, IC50 refers to the concentration needed to halve the response being measured.

Where a name gives a salt, the structure may show the parent alone.

As for `CN(C)C(=O)c1cnc(-c2cc3nccc(-c4cc(F)c(OC5CCOCC5)c(C#N)c4)c3o2)c(F)c1` [Compound 247, 6-(7-(3-cyano-5-fluoro-4-(tetrahydro-2H-pyran-4-yloxy)phenyl)furo[3,2-b]pyridin-2-yl)-5-fluoro-N,N-dimethylnicotinamide], the half-maximal inhibitory concentration (IC50) at TBK1 and at IKKε was 0.1 to 1 µM each time.

`CN(C)C(=O)c1cnc(-c2cc3nccc(-c4ccc(NC5CCOCC5)c(C#N)c4)c3o2)c(F)c1` [Compound 249, 6-(7-(3-cyano-4-(tetrahydro-2H-pyran-4-ylamino)phenyl)furo[3,2-b]pyridin-2-yl)-5-fluoro-N,N-dimethylnicotinamide]: the half-inhibitory concentration (IC50) at TBK1 and at IKKε was 0.1 to 1 µM throughout.

Regarding `CN(C)C(=O)c1ccc(-c2cc3nccc(-c4ccc(NC5CCOCC5)c(C#N)c4)c3o2)c(F)c1` [Compound 250, 4-(7-(3-cyano-4-(tetrahydro-2H-pyran-4-ylamino)phenyl)furo[3,2-b]pyridin-2-yl)-3-fluoro-N,N-dimethylbenzamide], the concentration for half-maximal inhibition (IC50) at TBK1 and on IKKε was 0.1 to 1 µM throughout.

For `COc1cc(C(=O)N(C)C)cc(F)c1-c1cc2nccc(-c3ccc(NC4CCOCC4)c(C#N)c3)c2o1` [Compound 255, 4-(7-(3-cyano-4-(tetrahydro-2H-pyran-4-ylamino)phenyl)furo[3,2-b]pyridin-2-yl)-3-fluoro-5-methoxy-N,N-dimethylbenzamide], the half-inhibitory concentration (IC50) at TBK1 and on IKKε was less than 0.1 µM throughout.

Turning to `CCN(CC)C(=O)c1ccc(-c2cc3nccc(-c4ccc(OC5CCOCC5)c(C#N)c4)c3o2)c(OC)c1` [Compound 256, 4-(7-(3-cyano-4-(tetrahydro-2H-pyran-4-yloxy)phenyl)furo[3,2-b]pyridin-2-yl)-N,N-diethyl-3-methoxybenzamide hydrochloride], the IC50 at TBK1 and on IKKε was less than 0.1 µM in each case.

For the compound `CCCN(C)C(=O)c1ccc(-c2cc3nccc(-c4ccc(OC5CCOCC5)c(C#N)c4)c3o2)c(OC)c1` [Compound 257, 4-(7-(3-cyano-4-(tetrahydro-2H-pyran-4-yloxy)phenyl)furo[3,2-b]pyridin-2-yl)-3-methoxy-N-methyl-N-propylbenzamide hydrochloride], the IC50 on TBK1 and on IKKε was less than 0.1 µM each time.

In the case of `COc1cc(C(=O)N(C)CCCO)ccc1-c1cc2nccc(-c3ccc(OC4CCOCC4)c(C#N)c3)c2o1` [Compound 258, 4-(7-(3-cyano-4-(tetrahydro-2H-pyran-4-yloxy)phenyl)furo[3,2-b]pyridin-2-yl)-N-(3-hydroxypropyl)-3-methoxy-N-methylbenzamide hydrochloride], the IC50 on TBK1 and on IKKε was less than 0.1 µM in each case.

In the case of `CCN(CC)C(=O)c1ccc(-c2cc3nccc(-c4ccc(NC5CCOCC5)c(C#N)c4)c3o2)c(OC)c1` [Compound 259, 4-(7-(3-cyano-4-(tetrahydro-2H-pyran-4-ylamino)phenyl)furo[3,2-b]pyridin-2-yl)-N,N-diethyl-3-methoxybenzamide], the IC50 on TBK1 and on IKKε was less than 0.1 µM in each case.

As to `COc1cc(C(=O)N(C)CC(F)F)ccc1-c1cc2nccc(-c3ccc(OC4CCOCC4)c(C#N)c3)c2o1` [Compound 260], the half-maximal inhibitory concentration (IC50) at TBK1 and on IKKε was less than 0.1 µM throughout.

Consider `COc1cc(C(=O)N(C)CCCO)ccc1-c1cc2nccc(-c3ccc(NC4CCOCC4)c(C#N)c3)c2o1` [Compound 261, 4-(7-(3-cyano-4-(tetrahydro-2H-pyran-4-ylamino)phenyl)furo[3,2-b]pyridin-2-yl)-N-(3-hydroxypropyl)-3-methoxy-N-methylbenzamide], for which the concentration for half-maximal inhibition (IC50) on TBK1 and on IKKε was less than 0.1 µM each time.

Turning to `CCN(C)C(=O)c1ccc(-c2cc3nccc(-c4ccc(NC5CCOCC5)c(C#N)c4)c3o2)c(OC)c1` [Compound 262, 4-(7-(3-cyano-4-(tetrahydro-2H-pyran-4-ylamino)phenyl)furo[3,2-b]pyridin-2-yl)-N-ethyl-3-methoxy-N-methylbenzamide], the IC50 on TBK1 and on IKKε was less than 0.1 µM in each case.

Turning to `CCc1cc(C(=O)N(C)C)ccc1-c1cc2nccc(-c3ccc(OC4CCOCC4)c(C#N)c3)c2o1` [Compound 263, 4-(7-(3-cyano-4-(tetrahydro-2H-pyran-4-yloxy)phenyl)furo[3,2-b]pyridin-2-yl)-3-ethyl-N,N-dimethylbenzamide], the 50% inhibitory concentration (IC50) at TBK1 and at IKKε was less than 0.1 µM throughout.

As for `CN(C)C(=O)c1ccc(-c2cc3nccc(-c4ccc(OC5CCOCC5)c(C#N)c4)c3o2)c(O)c1` [Compound 264, 4-(7-(3-cyano-4-(tetrahydro-2H-pyran-4-yloxy)phenyl)furo[3,2-b]pyridin-2-yl)-3-hydroxy-N,N-dimethylbenzamide], the IC50 on TBK1 and at IKKε was less than 0.1 µM each time.

Turning to `COc1cc(C(=O)N(C)C)ccc1-c1cc2ncc(Cl)c(-c3ccc(OC4CCOCC4)c(C#N)c3)c2o1` [Compound 265, 4-(6-chloro-7-(3-cyano-4-(tetrahydro-2H-pyran-4-yloxy)phenyl)furo[3,2-b]pyridin-2-yl)-3-methoxy-N,N-dimethylbenzamide], the IC50 on TBK1 and on IKKε was 0.1 to 1 µM each time.

As to `COc1cc(C(=O)N(C)C)ccc1-c1cc2ncc(Cl)c(-c3ccc(NC4CCOCC4)c(C#N)c3)c2o1` [Compound 266, 4-(6-chloro-7-(3-cyano-4-(tetrahydro-2H-pyran-4-ylamino)phenyl)furo[3,2-b]pyridin-2-yl)-3-methoxy-N,N-dimethylbenzamide], the IC50 on TBK1 and at IKKε was 0.1 to 1 µM throughout.

For the compound `CN(CCO)C(=O)c1ccc(-c2cc3ncc(Cl)c(-c4ccc(OC5CCOCC5)c(C#N)c4)c3o2)c(F)c1` [Compound 267, 4-(6-chloro-7-(3-cyano-4-(tetrahydro-2H-pyran-4-yloxy)phenyl)furo[3,2-b]pyridin-2-yl)-3-fluoro-N-(2-hydroxyethyl)-N-methylbenzamide], the figures for the IC50 on TBK1 and at IKKε were 1 to 5 µM and greater than 5 µM, respectively.

Turning to `COc1cc(C(=O)N(C)CCO)ccc1-c1cc2ncc(C)c(-c3ccc(NC4CCOCC4)c(C#N)c3)c2o1` [Compound 268, 4-(7-(3-cyano-4-(tetrahydro-2H-pyran-4-ylamino)phenyl)-6-methylfuro[3,2-b]pyridin-2-yl)-N-(2-hydroxyethyl)-3-methoxy-N-methylbenzamide], the half-inhibitory concentration (IC50) on TBK1 and on IKKε was 0.1 to 1 µM in each case.

For the compound `COc1cc(C(=O)N(C)C)ccc1-c1cc2ncc(C)c(-c3ccc(OC4CCOCC4)c(C#N)c3)c2o1` [Compound 269, 4-(7-(3-cyano-4-(tetrahydro-2H-pyran-4-yloxy)phenyl)-6-methylfuro[3,2-b]pyridin-2-yl)-3-methoxy-N,N-dimethylbenzamide hydrochloride], the half-maximal inhibitory concentration (IC50) on TBK1 and on IKKε was 0.1 to 1 µM each time.

For the compound `COc1cc(C(=O)N(C)C)cnc1-c1cc2nccc(-c3ccc(NC4CCOCC4)c(C#N)c3)c2o1` [Compound 270, 6-(7-(3-cyano-4-(tetrahydro-2H-pyran-4-ylamino)phenyl)furo[3,2-b]pyridin-2-yl)-5-methoxy-N,N-dimethylnicotinamide hydrochloride], the 50% inhibitory concentration (IC50) on TBK1 and at IKKε was less than 0.1 µM each time.

Consider `COc1nc(C(=O)N(C)C)ccc1-c1cc2nccc(-c3ccc(OC4CCOCC4)c(C#N)c3)c2o1` [Compound 271, 5-(7-(3-cyano-4-(tetrahydro-2H-pyran-4-yloxy)phenyl)furo[3,2-b]pyridin-2-yl)-6-methoxy-N,N-dimethylpicolinamide], for which the IC50 on TBK1 and on IKKε was less than 0.1 µM in each case.
